Reference: patent US8158621B2, “Methods of treating or preventing autoimmune diseases with 2,4-pyrimidinediamine compounds” (Rigel Pharmaceuticals, Inc., priority 2002, dated 2012)

What was measured:
[1] = biological target: T1, Syk kinase (Homo sapiens, UniProt P43405); test: Syk kinase biochemical fluorescence polarization assay; settings: isolated Syk kinase, fluorescence polarization, 4 uM ATP
T1 construct: purchased Upstate, Lake Placid NY

[2] = tested on: cultured human mast cells (CHMC); test: CHMC low cell density ionomycin activation: tryptase assay; format: cell-based; settings: read-out: CHMC Ionomycin Tryptase
[3] = tested on: cultured human mast cells (CHMC); test: CHMC low cell density IgE activation: tryptase assay; format: cell-based; settings: read-out: CHMC anti-IgE Tryptase
Summary of the method: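 Supernatant tryptase activity, assayed with substrate for 30 min at room temperature, served as the degranulation measure. Mast cells (1000-1500 per well depending on donor) sat 1 hr at 37° C in MT before a 30 min anti-IgE challenge at 37° C.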

[4] = tested on: Human Jurkat T-cells (clone N); test: Jurkat T-cell activation (anti-TCR, CD69 upregulation); format: cell-based
Summary of the method: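 Readout is CD69 upregulation by flow cytometry (anti-CD69-APC, 20 min at 4 °C) after 20 h anti-TCR (C305, 500 ng/ml) stimulation at 37 °C.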

[5] = Mouse Reverse Passive Arthus reaction (RPA reaction); format: in vivo, C57BL/6 mice; settings: oral
Description: In this model system, test compounds are administered at several timepoints prior to administration of Abs and Ags. A solution of rabbit anti-OVA IgG (50 μg in 25 μl/mouse) is injected intradermally, and immediately following is an intravenous injection of chicken egg albumin (20 mg/kg of body weight) in a solution containing 1% Evans blue dye. The degree of edema and hemorrhage is measured in the dorsal skin of C57BL/6 mice using the Evan's Blue dye as an indicator of local tissue damage. Purified polyclonal rabbit IgG is used as a control.
Pretreatment time, in which the test compounds are administered prior to Ab/Ag challenge, depends on the pharmacokinetic (PK) properties of each individual compound. Four hours after induction of Arthus reaction, mice are euthanized, and tissues are harvested for assessment of edema.

[6] = 50 mg/kg, pretreatment time 1.5 hrs
[7] = 100 mg/kg, pretreatment time 1.5 hrs
[8] = 100 mg/kg, pretreatment time 1.5 hrs + 4 hours
[9] = 50 mg/kg, pretreatment time 1.5 hrs + 4 hours

Row | SMILES | IC50 [1] [nM] | IC50 ([2]; low cell density) [nM] | IC50 ([3]; low cell density) [nM] | further results
1 | COc1cc(Nc2ncc(F)c(Nc3ccc4c(c3)NC(=O)C(C)(C)O4)n2)cc(OC)c1.Cc1ccc(S(=O)(=O)O)cc1 [Compound R927070] |  | 5240 | 54 | % inhibition to vehicle control Edema Size ± SEM ([5]; 50 mg/kg, pretreatment time 1 hrs): 56 ± 15%; Plasma Concentration ± SEM (ng/ml) Exposure = Pretreatment Time + 4 hours ([5]; 50 mg/kg, pretreatment time 1 hrs + 4 hours): 1755 ± 310 ng/mL; % inhibition to vehicle control Edema Size ± SEM [5, 6]: 31.1 ± 17.29%; % inhibition to vehicle control Edema Size ± SEM ([5]; 100 mg/kg, pretreatment time 1 hrs): 61 ± 14%; Plasma Concentration ± SEM (ng/ml) Exposure = Pretreatment Time + 4 hours ([5]; 100 mg/kg, pretreatment time 1 hrs + 4 hours): 2851 ± 712 ng/mL; % inhibition to vehicle control Edema Size ± SEM [5, 7]: 55.5 ± 7.7%; Plasma Concentration ± SEM (ng/ml) Exposure = Pretreatment Time + 4 hours [5, 8]: 4095 ± 1187 ng/mL
2 | COc1c(Cl)cc(Nc2ncc(F)c(Nc3ccc4c(c3)NC(=O)C(F)(F)O4)n2)cc1Cl [Compound R927061] | 158 | 4720 | 126 | 
3 | O=C1Nc2cc(Nc3nc(Nc4ccc5cc[nH]c5c4)ncc3F)ccc2OC1(F)F [Compound R926977] | 7 | > 10000 | 35.9 | 
4 | Fc1cnc(Nc2ccc3cc[nH]c3c2)nc1Nc1ccc(Cl)c(Cl)c1 [Compound R926975] | 767 | 30200 | 421 | 
5 | COc1ccc(Nc2ncc(F)c(Nc3ccc4c(c3)NC(=O)[C@H](C)O4)n2)cc1Cl [Compound R909321] | 104 | 30000 | 163 | 
6 | O=C1Nc2cc(Nc3nc(Nc4cc(Cl)cc(Cl)c4)ncc3F)ccc2OC1(F)F [Compound R926985] | 203 | 4130 | 140 | 
7 | CNC(=O)C1Cc2cc(Nc3ncc(F)c(Nc4ccc(OC(C)C)cc4)n3)ccc2O1 (stereo not drawn) [Compound R926956] | 380 |  |  | IC50 ([2]; Low Density): > 10000 nM; IC50 ([3]; Low Density): 211 nM; IC50 [4]: 749 nM
8 | C[C@@H]1Oc2ccc(Nc3ncc(F)c(Nc4ccc5c(c4)NC(=O)[C@H](C)O5)n3)cc2NC1=O [Compound R908952] | 41 | 6070 | 80 | 
9 | COc1ccc(Nc2nc(Nc3ccc4cc[nH]c4c3)ncc2F)cc1Cl.Cc1ccc(S(=O)(=O)O)cc1 [Compound R927087] |  | > 10000 | 436 | % inhibition to vehicle control Edema Size ± SEM [5, 6]: −10.4 ± 14.4%; Plasma Concentration ± SEM (ng/ml) Exposure = Pretreatment Time + 4 hours [5, 9]: 26.9 ± 8.0 ng/mL; % inhibition to vehicle control Edema Size ± SEM [5, 7]: 28.7 ± 16.6%; Plasma Concentration ± SEM (ng/ml) Exposure = Pretreatment Time + 4 hours [5, 8]: 28.7 ± 10.8 ng/mL
10 | CNC(=O)C1Cc2cc(Nc3ncc(F)c(Nc4ccc5c(c4)NC(=O)C(F)(F)O5)n3)ccc2O1 (racemic) [Compound R927049] | 4 | > 10000 | 110 | 
11 | CN(C)C(=O)C1Cc2cc(Nc3ncc(F)c(Nc4ccc5c(c4)NC(=O)C(F)(F)O5)n3)ccc2O1 (stereo not drawn) [Compound R926983] | 12 | > 10000 | 195 | 
12 | Nc1cccc(Nc2nc(Nc3cccc(O)c3)ncc2F)n1 [Compound R927083] | 449 | 19000 | 316 | 
13 | CN(C)Cc1cc2cc(Nc3ncc(F)c(Nc4ccc5c(c4)NC(=O)C(F)(F)O5)n3)ccc2o1 [Compound R926979] | 13 | 23500 | 109 | 
14 | COc1ccc(Nc2ncc(F)c(Nc3ccc4c(c3)NC(=O)C(F)(F)O4)n2)cc1Cl [Compound R926981] | 10 | > 10000 | 137 | 
15 | COc1cc(Nc2ncc(F)c(Nc3ccc4c(c3)NC(=O)C(F)(F)O4)n2)cc(OC)c1 [Compound R926970] | 57 | > 10000 | 60 | 
16 | COc1cc(Nc2ncc(F)c(Nc3ccc4c(c3)NC(=O)C(F)(F)O4)n2)cc(C(F)(F)F)c1 [Compound R926984] | 459 | > 10000 | 167 | 
17 | O=C1Nc2cc(Nc3nc(Nc4cc(Cl)c(O)c(Cl)c4)ncc3F)ccc2OC1(F)F [Compound R927048] | 2 | > 10000 | 50 | 
18 | COc1cc(Nc2ncc(F)c(Nc3cccc(N)n3)n2)cc(OC)c1 [Compound R927077] | 602 | 8800 | 284 | 
19 | COc1cc(Nc2ncc(F)c(Nc3ccc(Cl)c(Cl)c3)n2)cc(OC)c1 [Compound R927060] | 620 | 5170 | 222 | 

Now from value to compound, other results behind:

Row | IC50 [1] [nM] | IC50 ([2]; low cell density) [nM] | IC50 ([3]; low cell density) [nM] | SMILES | further results
20 | 10 | > 10000 | 94 | CC(=O)N1CCN(c2ccc(Nc3ncc(F)c(Nc4ccc5c(n4)NC(=O)CO5)n3)cc2)CC1 [Compound R945391] | 
21 | 1 | > 10000 | 46 | O=C1Nc2cc(Nc3nc(Nc4ccc5cn[nH]c5c4)ncc3F)ccc2OC1(F)F [Compound R940364] | 
22 | 23 | 4300 | 30 | Cc1cc(Nc2ncc(F)c(Nc3ccc4c(c3)NC(=O)C(C)(C)O4)n2)cc(Cl)c1O [Compound R940358] | IC50 [4]: 159 nM
23 | 1300 | > 10000 | 713 | COC(=O)N1CCN(c2ccc(Nc3ncc(F)c(NC4CC4)n3)cc2)CC1 [Compound R945371] | 
24 | > 10000 | > 10000 | > 10000 | CC1(C)Oc2ccc(Nc3nc(Nc4ccc(OC(F)(F)F)c(Cl)c4)ncc3F)nc2NC1=O [Compound R940390] | 
25 | 70 | 16200 | 106 | CNC(=O)CCn1ncc2cc(Nc3ncc(F)c(Nc4ccc5c(c4)NC(=O)C(C)(C)O5)n3)ccc21 [Compound R935433] | 
26 | > 10000 | > 10000 | 2520 | CC(=O)N(C)c1ccc(Nc2ncc(F)c(Nc3ccc4c(n3)NC(=O)C(C)(C)O4)n2)cc1 [Compound R945417] | 
27 | 14 | > 10000 | 85 | COC(=O)N1CCN(c2ccc(Nc3ncc(F)c(Nc4ccc5c(n4)NC(=O)CO5)n3)cc2)CC1 [Compound R945392] | 
28 | 558 | > 10000 | 228 | COc1c(C)cc(Nc2ncc(F)c(Nc3ccc4c(c3)-n3ccnc3CO4)n2)cc1Cl [Compound R935418] | 
29 | 13 | 14100 | 117 | CC1(C)Oc2ccc(Nc3ncc(F)c(Nc4ccc5c(c4)NC(=O)C(F)(F)O5)n3)cc2NC1=O [Compound R940367] | 
30 |  | > 10000 | > 10000 | Cc1ccc(S(=O)(=O)O)cc1.Cc1ccc(S(=O)(=O)O)cc1.OCCCn1ncc2cc(Nc3ncc(F)c(Nc4ccc(Cl)c(Cl)c4)n3)ccc21 [Compound R935451] | % inhibition to vehicle control Edema Size ± SEM ([5]; 10 mg/kg, pretreatment time 1.5 hrs): −14.4 ± 13.3%; Plasma Concentration ± SEM (ng/ml) Exposure = Pretreatment Time + 4 hours ([5]; 10 mg/kg, pretreatment time 1.5 hrs + 4 hours): 14.4 ± 1.8 ng/mL; % inhibition to vehicle control Edema Size ± SEM ([5]; 30 mg/kg, pretreatment time 1.5 hrs): −30.6 ± 15.4%; Plasma Concentration ± SEM (ng/ml) Exposure = Pretreatment Time + 4 hours ([5]; 30 mg/kg, pretreatment time 1.5 hrs + 4 hours): 78.0 ± 32.0 ng/mL; % inhibition to vehicle control Edema Size ± SEM [5, 6]: 74.9 ± 7.5%; Plasma Concentration ± SEM (ng/ml) Exposure = Pretreatment Time + 4 hours [5, 9]: 385.0 ± 149.4 ng/mL; % inhibition to vehicle control Edema Size ± SEM [5, 7]: 77.1 ± 8.0%; Plasma Concentration ± SEM (ng/ml) Exposure = Pretreatment Time + 4 hours [5, 8]: 1459.0 ± 444.4 ng/mL
31 | 166 | > 10000 | 163 | COc1ccc(Nc2ncc(F)c(Nc3ccc4c(n3)NC(=O)CO4)n2)cc1Cl [Compound R945399] | 
32 | 35 | > 10000 | 74.8 | O=C1COc2ccc(Nc3nc(Nc4cccc(OCC(=O)NC5CCC5)c4)ncc3F)nc2N1 [Compound R945389] | 
33 | 1 | 1580 | 25 | Cn1ncc2ccc(Nc3ncc(F)c(Nc4ccc5c(c4)NC(=O)C(F)(F)O5)n3)cc21 [Compound R940368] | 
34 | 1050 | > 10000 | 522 | CC(=O)N1CCN(c2ccc(Nc3ncc(F)c(NC4CC4)n3)cc2)CC1 [Compound R945370] | 
35 | 127 | 21000 | 123 | COc1ccc(Nc2ncc(F)c(Nc3ccc4c(c3)C(N)CCO4)n2)cc1Cl (racemic) [Compound R950428] | 
36 | 59 | > 10000 | 112 | CNC(=O)COc1cccc(Nc2ncc(F)c(Nc3cc(C)c(O)c(Cl)c3)n2)c1 [Compound R945366] | 
37 | 50 | 8500 | 36 | CC1(C)Oc2ccc(Nc3nc(Nc4ccc5c(cnn5CCCO)c4)ncc3F)cc2NC1=O [Compound R935432] | 
38 | 9 | > 10000 | 118 | O=C1COc2ccc(Nc3nc(Nc4cccc(OCC(=O)NC5CC5)c4)ncc3F)nc2N1 [Compound R945390] | 
